{"source": "patent US11951108B2", "about": "“Combination therapy for treating cancer” (Epizyme, Inc., priority 2016, dated 2024)", "key": {"MDA-MB-453": {"system": "MDA-MB-453", "experiment": "In vitro combination study, breast cancer cell line MDA-MB-453", "assay_type": "cell-based", "settings": "10 μM"}, "OVSAHO": {"system": "OVSAHO", "experiment": "In vitro combination study, ovarian cancer cell line OVSAHO", "settings": "Homo sapiens, read-out: Tazemetostat % inhibition at 20 μM"}, "TYK-NU": {"system": "TYK-NU", "experiment": "In vitro combination study, ovarian cancer cell line TYK-NU", "assay_type": "cell-based", "settings": "read-out: Tazemetostat % inhibition at 20 μM"}, "DU4475": {"system": "DU4475", "experiment": "In vitro combination study, breast cancer cell line DU4475", "settings": "10 μM"}, "SKOV3": {"system": "SKOV3", "experiment": "In vitro combination study, ovarian cancer cell line SKOV3", "settings": "20 μM"}, "OVMANA": {"system": "OVMANA", "experiment": "In vitro combination study, ovarian cancer cell line OVMANA", "settings": "read-out: Tazemetostat % inhibition at 20 μM"}, "MDA-MB-436": {"system": "MDA-MB-436", "experiment": "In vitro combination study, breast cancer cell line MDA-MB-436", "assay_type": "cell-based"}, "MCF-7": {"system": "MCF-7", "experiment": "In vitro combination study, breast cancer cell line MCF-7", "assay_type": "cell-based"}, "A2780": {"system": "A2780", "experiment": "In vitro combination study, ovarian cancer cell line A2780", "settings": "Homo sapiens, A2780, read-out: Tazemetostat % inhibition at 20 μM"}, "OV-90": {"system": "OV-90", "experiment": "In vitro combination study, ovarian cancer cell line OV-90", "settings": "Homo sapiens, OV-90, read-out: Tazemetostat % inhibition at 20 μM"}, "COV362": {"system": "COV362", "experiment": "In vitro combination study, ovarian cancer cell line COV362", "settings": "COV362, read-out: Tazemetostat % inhibition at 20 μM"}, "OAW42": {"system": "OAW42", "experiment": "In vitro combination study, ovarian cancer cell line OAW42", "settings": "Homo sapiens, OAW-42, read-out: Tazemetostat % inhibition at 20 μM"}, "SUM1315MO2": {"system": "SUM1315MO2", "experiment": "In vitro combination study, breast cancer cell line SUM1315MO2", "assay_type": "cell-based"}, "OVCAR-3": {"system": "OVCAR-3", "experiment": "In vitro combination study, ovarian cancer cell line OVCAR-3", "assay_type": "cell-based", "settings": "Homo sapiens, read-out: Tazemetostat % inhibition at 20 μM"}, "BT549": {"system": "BT549", "experiment": "In vitro combination study, breast cancer cell line BT549", "settings": "10 μM"}, "SUM159PT": {"system": "SUM159PT", "experiment": "In vitro combination study, breast cancer cell line SUM159PT", "settings": "10 μM"}, "BT-20": {"system": "BT-20", "experiment": "In vitro combination study, breast cancer cell line BT-20", "settings": "10 μM"}, "MDA-MB-175VII": {"system": "MDA-MB-175VII", "experiment": "In vitro combination study, breast cancer cell line MDA-MB-175VII", "settings": "10 μM"}, "MDA-MB-468": {"system": "MDA-MB-468", "experiment": "In vitro combination study, breast cancer cell line MDA-MB-468"}, "HCC1569": {"system": "HCC1569", "experiment": "In vitro combination study, breast cancer cell line HCC1569"}, "BT474": {"system": "BT474", "experiment": "In vitro combination study, breast cancer cell line BT474", "settings": "10 μM"}, "MDA-MB-361": {"system": "MDA-MB-361", "experiment": "In vitro combination study, breast cancer cell line MDA-MB-361", "assay_type": "cell-based"}, "TOV21G": {"system": "TOV21G", "experiment": "In vitro combination study, ovarian cancer cell line TOV21G", "assay_type": "cell-based", "settings": "Homo sapiens, read-out: Tazemetostat % inhibition at 20 μM, 20 μM"}, "OVISE": {"system": "OVISE", "experiment": "In vitro combination study, ovarian cancer cell line OVISE", "settings": "read-out: Tazemetostat % inhibition at 20 μM"}, "COV504": {"system": "COV504", "experiment": "cells", "settings": "COV504, read-out: Tazemetostat % inhibition at 20 μM"}, "CAOV-3": {"system": "CAOV-3", "experiment": "In vitro combination study, ovarian cancer cell line CAOV-3", "assay_type": "cell-based", "settings": "Homo sapiens, read-out: Tazemetostat % inhibition at 20 μM, 20 μM"}, "HCC1954": {"system": "HCC1954", "experiment": "In vitro combination study, breast cancer cell line HCC1954", "assay_type": "cell-based"}, "HCC1806": {"system": "HCC1806", "experiment": "In vitro combination study, breast cancer cell line HCC1806", "assay_type": "cell-based"}, "SNU840": {"system": "SNU840", "experiment": "In vitro combination study, ovarian cancer cell line SNU840", "settings": "SNU-840, read-out: Tazemetostat % inhibition at 20 μM"}, "COV644*": {"system": "COV644*", "experiment": "In vitro combination study, ovarian cancer cell line COV644", "settings": "read-out: Tazemetostat % inhibition at 20 μM"}, "ES-2": {"system": "ES-2", "experiment": "In vitro combination study, ovarian cancer cell line ES-2", "settings": "20 μM"}, "COV434": {"system": "COV434", "experiment": "cells", "settings": "COV434, read-out: Tazemetostat % inhibition at 20 μM"}, "SK-BR-3": {"system": "SK-BR-3", "experiment": "In vitro combination study, breast cancer cell line SK-BR-3", "assay_type": "cell-based"}, "SUM52PE": {"system": "SUM52PE", "experiment": "In vitro combination study, breast cancer cell line SUM52PE", "settings": "10 μM"}, "RMUGS*": {"system": "RMUGS*", "experiment": "In vitro combination study, ovarian cancer cell line RMUGS", "settings": "20 μM"}, "HCC1143": {"system": "HCC1143", "experiment": "In vitro combination study, breast cancer cell line HCC1143", "settings": "10 μM"}, "KURAMOCHI": {"system": "KURAMOCHI", "experiment": "In vitro combination study, ovarian cancer cell line KURAMOCHI", "settings": "read-out: Tazemetostat % inhibition at 20 μM"}, "HCC1419": {"system": "HCC1419", "experiment": "In vitro combination study, breast cancer cell line HCC1419", "settings": "10 μM"}, "HCC38": {"system": "HCC38", "settings": "HCC38; 10 μM"}, "MDA-MB-231": {"system": "MDA-MB-231", "experiment": "In vitro combination study, breast cancer cell line MDA-MB-231", "settings": "10 μM"}, "ZR-75-1": {"system": "ZR-75-1", "experiment": "In vitro combination study, breast cancer cell line ZR-75-1"}, "TOV112D": {"system": "TOV112D", "experiment": "In vitro combination study, ovarian cancer cell line TOV112D", "settings": "20 μM"}, "JH)S-4": {"system": "JH)S-4", "experiment": "In vitro combination study, ovarian cancer cell line JH)S-4", "settings": "20 μM"}, "CAMA-1": {"system": "CAMA-1", "experiment": "In vitro combination study, breast cancer cell line CAMA-1", "assay_type": "cell-based", "settings": "10 μM"}, "HCC1187": {"system": "HCC1187", "experiment": "In vitro combination study, breast cancer cell line HCC1187", "settings": "10 μM"}, "HCC1937": {"system": "HCC1937", "experiment": "In vitro combination study, breast cancer cell line HCC1937", "settings": "10 μM"}}}
{"compound": "CCN(c1cc(-c2ccc(CN3CCOCC3)cc2)cc(C(=O)NCc2c(C)cc(C)[nH]c2=O)c1C)C1CCOCC1", "note": "[Tazemetostat, tazemetostat]", "values": [{"measurement": "Tazemetostat sensitivity at 10 μM (%)", "setting": "MDA-MB-453", "result": 40, "unit": "%"}, {"measurement": "Tazemetostat sensitivity at 10 μM (%)", "setting": "EFM-19", "result": 20, "unit": "%"}, {"measurement": "inhibition at 20 µM", "setting": "OVSAHO", "result": 0, "unit": "%"}, {"measurement": "inhibition at 20 µM", "setting": "TYK-NU", "result": 0, "unit": "%"}, {"measurement": "Tazemetostat sensitivity at 10 μM (%)", "setting": "DU4475", "result": 35, "unit": "%"}, {"measurement": "Tazemetostat % inhibition at 20 μM", "setting": "SKOV3", "result": 15, "unit": "%"}, {"measurement": "Tazemetostat sensitivity at 10 μM (%)", "setting": "HCC202", "result": 0, "unit": "%"}, {"measurement": "inhibition at 20 µM", "setting": "OVMANA", "result": 20, "unit": "%"}, {"measurement": "Tazemetostat sensitivity at 10 μM (%)", "setting": "MDA-MB-436", "result": 10, "unit": "%"}, {"measurement": "Tazemetostat sensitivity at 10 μM (%)", "setting": "MCF-7", "result": 50, "unit": "%"}, {"measurement": "inhibition at 20 µM", "setting": "A2780", "result": 35, "unit": "%"}, {"measurement": "inhibition at 20 µM", "setting": "OV-90", "result": 15, "unit": "%"}, {"measurement": "inhibition at 20 µM", "setting": "COV362", "result": 0, "unit": "%"}, {"measurement": "inhibition at 20 µM", "setting": "OAW42", "result": 15, "unit": "%"}, {"measurement": "Tazemetostat sensitivity at 10 μM (%)", "setting": "HCC70", "result": 35, "unit": "%"}, {"measurement": "Tazemetostat sensitivity at 10 μM (%)", "setting": "SUM1315MO2", "result": 35, "unit": "%"}, {"measurement": "inhibition at 20 µM", "setting": "OVCAR-3", "result": 0, "unit": "%"}, {"measurement": "Tazemetostat sensitivity at 10 μM (%)", "setting": "BT549", "result": 40, "unit": "%"}, {"measurement": "Tazemetostat sensitivity at 10 μM (%)", "setting": "SUM159PT", "result": 50, "unit": "%"}, {"measurement": "Tazemetostat sensitivity at 10 μM (%)", "setting": "BT-20", "result": 0, "unit": "%"}, {"measurement": "Tazemetostat sensitivity at 10 μM (%)", "setting": "MDA-MB-175VII", "result": 10, "unit": "%"}, {"measurement": "Tazemetostat sensitivity at 10 μM (%)", "setting": "MDA-MB-468", "result": 30, "unit": "%"}, {"measurement": "Tazemetostat sensitivity at 10 μM (%)", "setting": "HCC1569", "result": 20, "unit": "%"}, {"measurement": "Tazemetostat sensitivity at 10 μM (%)", "setting": "BT474", "result": 0, "unit": "%"}, {"measurement": "Tazemetostat sensitivity at 10 μM (%)", "setting": "MDA-MB-361", "result": 10, "unit": "%"}, {"measurement": "inhibition at 20 µM", "setting": "TOV21G", "result": 40, "unit": "%"}, {"measurement": "inhibition at 20 µM", "setting": "OVISE", "result": 0, "unit": "%"}, {"measurement": "inhibition at 20 µM", "setting": "COV504", "result": 30, "unit": "%"}, {"measurement": "inhibition at 20 µM", "setting": "CAOV-3", "result": 0, "unit": "%"}, {"measurement": "Tazemetostat sensitivity at 10 μM (%)", "setting": "MDA-MB-157", "result": 0, "unit": "%"}, {"measurement": "Tazemetostat sensitivity at 10 μM (%)", "setting": "HCC1954", "result": 0, "unit": "%"}, {"measurement": "Tazemetostat sensitivity at 10 μM (%)", "setting": "HCC1806", "result": 40, "unit": "%"}, {"measurement": "inhibition at 20 µM", "setting": "SNU840", "result": 25, "unit": "%"}, {"measurement": "inhibition at 20 µM", "setting": "COV644*", "result": 10, "unit": "%"}, {"measurement": "Tazemetostat % inhibition at 20 μM", "setting": "ES-2", "result": 0, "unit": "%"}, {"measurement": "inhibition at 20 µM", "setting": "COV434", "result": 50, "unit": "%"}, {"measurement": "Tazemetostat sensitivity at 10 μM (%)", "setting": "SK-BR-3", "result": 70, "unit": "%"}, {"measurement": "Tazemetostat sensitivity at 10 μM (%)", "setting": "SUM52PE", "result": 50, "unit": "%"}, {"measurement": "Tazemetostat % inhibition at 20 μM", "setting": "RMUGS*", "result": "−20", "unit": "%"}, {"measurement": "Tazemetostat sensitivity at 10 μM (%)", "setting": "HCC1143", "result": 0, "unit": "%"}, {"measurement": "inhibition at 20 µM", "setting": "KURAMOCHI", "result": 20, "unit": "%"}, {"measurement": "Tazemetostat sensitivity at 10 μM (%)", "setting": "HCC1419", "result": 0, "unit": "%"}, {"measurement": "Tazemetostat sensitivity at 10 μM (%)", "setting": "SUM149PT", "result": 30, "unit": "%"}, {"measurement": "Tazemetostat sensitivity at 10 μM (%)", "setting": "HCC1395", "result": 25, "unit": "%"}, {"measurement": "Tazemetostat sensitivity at 10 μM (%)", "setting": "HCC38", "result": 20, "unit": "%"}, {"measurement": "Tazemetostat sensitivity at 10 μM (%)", "setting": "MDA-MB-231", "result": 0, "unit": "%"}, {"measurement": "Tazemetostat sensitivity at 10 μM (%)", "setting": "ZR-75-1", "result": 40, "unit": "%"}, {"measurement": "Tazemetostat % inhibition at 20 μM", "setting": "TOV112D", "result": 20, "unit": "%"}, {"measurement": "Tazemetostat % inhibition at 20 μM", "setting": "JH)S-4", "result": "−20", "unit": "%"}, {"measurement": "Tazemetostat sensitivity at 10 μM (%)", "setting": "CAMA-1", "result": 30, "unit": "%"}, {"measurement": "Tazemetostat sensitivity at 10 μM (%)", "setting": "HCC1187", "result": 0, "unit": "%"}, {"measurement": "Tazemetostat sensitivity at 10 μM (%)", "setting": "HCC1937", "result": 20, "unit": "%"}]}
